Assay results from patent US6358885B1, “Substituted phenylheterocyclic herbicides” (Mississippi State University, priority 1992, dated 2002).

What was measured:
[1] = test system: barnyardgrass; assay: Test B preemergence/postemergence greenhouse plant response rating 0 to 10; format: in vivo, Echinochloa crus-galli; conditions: 0 to 10 scale
Summary of the method: (§1)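 Postemergence treatment of plants two to eighteen cm tall ran alongside preemergence treatment of planted seed, each using compound in a non-phytotoxic solvent.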

[2] = test system: cheatgrass; assay: as above; format: in vivo, Bromus secalinus; conditions: 0 to 10 scale
Summary of the method: as §1

[3] = test system: chickweed; assay: as above; format: in vivo, Stellaria media; conditions: 0 to 10 scale
Summary of the method: as §1

[4] = test system: corn; assay: as above; format: in vivo, Zea mays; conditions: 0 to 10 scale
Summary of the method: as §1

[5] = test system: crabgrass; assay: as above; format: in vivo, Digitaria spp.; conditions: 0 to 10 scale
Summary of the method: as §1

[6] = test system: giant foxtail; assay: as above; format: in vivo, Setaria faberii; conditions: 0 to 10 scale
Summary of the method: as §1

[7] = test system: morningglory; assay: as above; format: in vivo, Ipomoea hederacea; conditions: 0 to 10 scale
Summary of the method: as §1

[8] = test system: rape; assay: as above; format: in vivo, Brassica napus; conditions: 0 to 10 scale
Summary of the method: as §1

[9] = test system: velvetleaf; assay: as above; format: in vivo, Abutilon theophrasti; conditions: 0 to 10 scale
Summary of the method: as §1

[10] = test system: barley; assay: Test C preemergence/postemergence greenhouse plant response rating 0 to 100; format: in vivo, Hordeum vulgare; conditions: PREEMERGENCE; for Plant response rating Barley Igri: 0 to 100 scale
Summary of the method: (§2)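 Compounds in non-phytotoxic solvent applied preemergence to sandy loam one day after planting, postemergence at the 1–4 leaf stage, or to ~2.5 cm floodwater over silt loam.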

[11] = test system: lambsquarters; assay: as above; format: in vivo, Chenopodium album; conditions: PREEMERGENCE; for Plant response rating Lambsquarters: 0 to 100 scale
Summary of the method: as §2

[12] = test system: morningglory; assay: as above; format: in vivo, Ipomoea hederacea; conditions: PREEMERGENCE; for Plant response rating, Morningglory: 0 to 100 scale
Summary of the method: as §2

[13] = test system: soybean; assay: as above; format: in vivo, Glycine max; conditions: PREEMERGENCE
Summary of the method: as §2

In the case of CCCN1C(=O)COc2cc(F)c(-c3nn4c(c3Br)CCCC4)cc21 [Compound 63], the “Plant response rating, Barnyardgrass” value ([1]; POSTEMERGENCE, Rate 10 g/ha) is reported as 3, the “Plant response rating, Barnyardgrass” value ([1]; POSTEMERGENCE, Rate 50 g/ha) is reported as 5 and the “Plant response rating, Barnyardgrass” value ([1]; PREEMERGENCE, Rate 10 g/ha) is reported as 0. For the same compound, the “Plant response rating, Barnyardgrass” value ([1]; PREEMERGENCE, Rate 50 g/ha) was 0, the “Plant response rating, Cheatgrass” value ([2]; POSTEMERGENCE, Rate 10 g/ha) was 4 and the “Plant response rating, Cheatgrass” value ([2]; POSTEMERGENCE, Rate 50 g/ha) was 4. The “Plant response rating, Cheatgrass” value ([2]; PREEMERGENCE, Rate 10 g/ha) was 2, the “Plant response rating, Cheatgrass” value ([2]; PREEMERGENCE, Rate 50 g/ha) was 2 and the “Plant response rating, Chickweed” value ([3]; POSTEMERGENCE, Rate 10 g/ha) was 5. For the same compound, the “Plant response rating, Chickweed” value ([3]; POSTEMERGENCE, Rate 50 g/ha) was 9, the “Plant response rating, Chickweed” value ([3]; PREEMERGENCE, Rate 10 g/ha) was 0 and the “Plant response rating, Chickweed” value ([3]; PREEMERGENCE, Rate 50 g/ha) was 9. The “Plant response rating, Corn” value ([4]; POSTEMERGENCE, Rate 10 g/ha) was 2, the “Plant response rating, Corn” value ([4]; POSTEMERGENCE, Rate 50 g/ha) was 2 and the “Plant response rating, Corn” value ([4]; PREEMERGENCE, Rate 50 g/ha) was 0. The “Plant response rating, Crabgrass” value ([5]; POSTEMERGENCE, Rate 10 g/ha) was 3, the “Plant response rating, Crabgrass” value ([5]; POSTEMERGENCE, Rate 50 g/ha) was 3 and the “Plant response rating, Crabgrass” value ([5]; PREEMERGENCE, Rate 10 g/ha) was 0. For the same compound, the “Plant response rating, Crabgrass” value ([5]; PREEMERGENCE, Rate 50 g/ha) was 0, the “Plant response rating, Giant foxtail” value ([6]; POSTEMERGENCE, Rate 10 g/ha) was 3 and the “Plant response rating, Giant foxtail” value ([6]; POSTEMERGENCE, Rate 50 g/ha) was 3. The “Plant response rating, Giant foxtail” value ([6]; PREEMERGENCE, Rate 10 g/ha) was 0, the “Plant response rating, Giant foxtail” value ([6]; PREEMERGENCE, Rate 50 g/ha) was 1 and the “Plant response rating, Morningglory” value ([7]; POSTEMERGENCE, Rate 10 g/ha) was 8. For the same compound, the “Plant response rating, Morningglory” value ([7]; POSTEMERGENCE, Rate 50 g/ha) was 10, the “Plant response rating, Morningglory” value ([7]; PREEMERGENCE, Rate 50 g/ha) was 0 and the “Plant response rating, Rape” value ([8]; POSTEMERGENCE, Rate 10 g/ha) was 9. The “Plant response rating, Rape” value ([8]; POSTEMERGENCE, Rate 50 g/ha) was 9, the “Plant response rating, Rape” value ([8]; PREEMERGENCE, Rate 50 g/ha) was 6 and the “Plant response rating, Velvetleaf” value ([9]; POSTEMERGENCE, Rate 10 g/ha) was 8. For the same compound, the “Plant response rating, Velvetleaf” value ([9]; POSTEMERGENCE, Rate 50 g/ha) was 10, the “Plant response rating, Velvetleaf” value ([9]; PREEMERGENCE, Rate 50 g/ha) was 7 and the “Plant response rating Barley Igri” value ([10]; 62 g/ha) was 10. The “Plant response rating Barley Igri” value ([10]; 250 g/ha) was 40, the “Plant response rating (0 to 100), Barley Igri” value ([10]; Rate 4 g/ha) was 0 and the “Plant response rating (0 to 100), Barley Igri” value ([10]; Rate 16 g/ha) was 0. For the same compound, the “Plant response rating Lambsquarters” value ([11]; 62 g/ha) was 95, the “Plant response rating Lambsquarters” value ([11]; 250 g/ha) was 100 and the “Plant response rating (0 to 100), Lambsquarters” value ([11]; Rate 4 g/ha) was 10. The “Plant response rating (0 to 100), Lambsquarters” value ([11]; Rate 16 g/ha) was 20, the “Plant response rating, Morningglory” value ([12]; 62 g/ha) was 40 and the “Plant response rating, Morningglory” value ([12]; 250 g/ha) was 100. The “Plant response rating (0 to 100), Morningglory” value ([12]; Rate 4 g/ha) was 0, the “Plant response rating (0 to 100), Morningglory” value ([12]; Rate 16 g/ha) was 10 and the “Plant response rating, Soybean” value ([13]; 250 g/ha, 0 to 100 scale) was 20. For the same compound, the “Plant response rating (0 to 100), Soybean” value ([13]; Rate 4 g/ha) was 0 and the “Plant response rating (0 to 100), Soybean” value ([13]; Rate 16 g/ha) was 0.
